Experimental findings from ChEMBL document CHEMBL3351611, “Diversity-oriented synthesis-facilitated medicinal chemistry: toward the development of novel antimalarial agents” (J Med Chem, 2014) are described below.

≈ marks a conversion by molar mass, not a printed value.

The target in one series is hERG (KCNH2) (Homo sapiens, UniProt Q12809). Briefly: Displacement of [3H]astemizole from human ERG expressed in HEK293 cell membranes at 10 uM incubated for 75 mins by scintillation counting method. The note with it: HEK293 cell membranes that express hERG, probe [3H]astemizole. A general note: Displacement assays read how much labelled ligand stays bound in the presence of the test substance.

Series [1] is described as follows: Lipophilicity, log D of the compound by HPLC method. It is filed as physicochemical.
Another series deals with Plasmodium falciparum. Briefly: Antimalarial activity against Plasmodium falciparum Dd2 assessed as inhibition of parasite proliferation. It counts as functional.
A short description of series [2]: Stability in mouse microsomes assessed as compound remaining at 1 uM after 1 hr at 37 degC by UPLC-MS method. It counts as ADME, Microsome. The note with it: read-out: Stability.
Series [3] can be described thus: Solubility in PBS buffet at pH 7.4 at 100 uM incubated for 18 hrs by UPLC-MS method. It is filed as physicochemical. The note with it: for solubility: buffer, pH 7.4, 18 h, 100 µM.
In series [4] the test system is Plasmodium berghei. Briefly: Antimalarial activity against Plasmodium berghei ANKA infected in CD1 Swiss albino mouse assessed as reduction in parasitemia level at 100 mg/kg, ip dosed seven times every 12 hrs over 3 days relative to control. It counts as functional. The note with it: route intraperitoneal.
A short description of series [5]: Plasma concentration in Plasmodium berghei ANKA infected CD1 Swiss albino mouse at 100 mg/kg, ip dosed seven times every 12 hrs over 3 days measured 30 mins after final dose on day 3. It is filed as ADME, organism-based. Also on record: dose 100 mg/kg, route intraperitoneal.
The nature of series [6]: Plasma concentration CD1 mouse at 20 mg/kg, ip dosed through cassette administration measured after 2 hrs by LC-MS/MS method. Also on record: dose 20 mg/kg, route intraperitoneal. It counts as ADME, organism-based.
In series [7] the test system is Plasmodium berghei. Briefly: Antimalarial activity against Plasmodium berghei ANKA infected in CD1 Swiss albino mouse assessed as reduction in parasitemia. It counts as functional.

Chain of hERG (KCNH2) (Q12809 whole entry): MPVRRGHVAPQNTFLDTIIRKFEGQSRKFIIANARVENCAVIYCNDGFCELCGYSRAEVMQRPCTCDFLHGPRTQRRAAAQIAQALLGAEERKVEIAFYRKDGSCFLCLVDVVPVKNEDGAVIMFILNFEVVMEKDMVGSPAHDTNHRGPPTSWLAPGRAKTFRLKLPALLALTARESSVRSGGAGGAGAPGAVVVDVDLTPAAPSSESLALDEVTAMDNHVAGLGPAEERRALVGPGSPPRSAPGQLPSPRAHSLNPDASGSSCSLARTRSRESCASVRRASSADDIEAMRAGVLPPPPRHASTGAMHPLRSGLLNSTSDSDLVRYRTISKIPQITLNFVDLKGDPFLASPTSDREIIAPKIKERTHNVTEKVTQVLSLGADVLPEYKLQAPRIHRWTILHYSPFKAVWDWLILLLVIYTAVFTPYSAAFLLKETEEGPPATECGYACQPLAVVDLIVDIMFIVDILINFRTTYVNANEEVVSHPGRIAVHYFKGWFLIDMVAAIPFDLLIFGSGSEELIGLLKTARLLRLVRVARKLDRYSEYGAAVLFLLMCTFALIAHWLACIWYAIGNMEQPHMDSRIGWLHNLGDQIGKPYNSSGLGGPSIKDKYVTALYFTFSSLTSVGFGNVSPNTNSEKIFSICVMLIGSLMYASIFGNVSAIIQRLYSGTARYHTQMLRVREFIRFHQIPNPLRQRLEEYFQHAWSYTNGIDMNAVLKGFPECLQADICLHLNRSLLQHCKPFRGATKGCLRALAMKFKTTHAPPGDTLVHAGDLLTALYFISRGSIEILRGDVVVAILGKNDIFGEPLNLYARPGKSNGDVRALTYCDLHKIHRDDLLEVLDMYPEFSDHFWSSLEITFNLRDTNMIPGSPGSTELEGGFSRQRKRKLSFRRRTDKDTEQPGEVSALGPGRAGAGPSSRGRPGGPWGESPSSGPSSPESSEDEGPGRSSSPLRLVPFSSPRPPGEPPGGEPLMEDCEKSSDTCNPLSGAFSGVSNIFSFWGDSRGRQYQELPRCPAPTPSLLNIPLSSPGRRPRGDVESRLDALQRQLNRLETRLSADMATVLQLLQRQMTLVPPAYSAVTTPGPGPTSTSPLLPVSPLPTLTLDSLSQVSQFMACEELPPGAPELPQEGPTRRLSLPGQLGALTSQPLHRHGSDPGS

For the compound `C[C@@H]1CN([C@@H](C)CN(C)C)C(=O)c2cc(NC(=O)Nc3ccccc3)ccc2O[C@@H](C)CCCCO[C@H]1CN(C)S(=O)(=O)c1ccc(F)cc1`, at hERG (KCNH2), the inhibition (usually how much of the control response was suppressed) at 1.25 h, 10 µM is 95%. Besides, the pH-dependent lipophilicity (logD) (in general, lipophilicity at a set pH, counting ionised and neutral species) in series [1] turned out to be 4.1.

With `Cc1noc(C)c1NC(=O)Nc1ccc2c(c1)C(=O)N([C@@H](C)CO)C[C@@H](C)[C@H](CN(C)S(=O)(=O)c1ccc(F)cc1)OCCCC[C@H](C)O2`, in the series on Plasmodium falciparum, the GI50 (in general, the concentration at which growth is held to half of that of the control) came out at 240 nM. Further, the inhibition at 1.25 h, 10 µM on hERG (KCNH2) was 11%. In [1], this compound came in with a logD of 2.9. In [2], the remaining at 1 h, 1 µM was < 5%.

Take `Cc1noc(C)c1NC(=O)Nc1ccc2c(c1)C(=O)N(C(C)C)C[C@@H](C)[C@H](CN(C)S(=O)(=O)c1ccc(F)cc1)OCCCC[C@H](C)O2`: the GI50 with Plasmodium falciparum came to 22 nM. In addition, the solubility (usually the concentration that dissolves in the medium under given conditions) at 18 h, 100 µM in [3] (PBS buffer, pH 7.4) was < 5 µM. The compound further had an inhibition at 1.25 h, 10 µM at hERG (KCNH2) of 0%. Further, in [1], the logD was found to be 4. The remaining at 1 h, 1 µM in series [2] was < 5%.

Take `Cc1noc(C)c1NC(=O)Nc1ccc2c(c1)C(=O)N([C@@H](C)CN(C)C)C[C@@H](C)[C@H](CN(C)S(=O)(=O)c1ccc(F)cc1)OCCCC[C@H](C)O2`: in the series on Plasmodium falciparum, the GI50 was 4.2 nM. In addition, the solubility in series [3] is > 100 µM. Further, the inhibition at 1.25 h, 10 µM at hERG (KCNH2) turned out to be 13%. In series [1], this compound registered a logD of 2.9. Moreover, in [2], the remaining at 1 h, 1 µM came out at 8%. Further, the “fold change (FC)” value in the series on Plasmodium berghei [4] came to 2. The compound further showed a concentration at 0.5 h in series [5] of 300 ng/mL. In series [6], this compound displayed a concentration at 2 h of 768 ng/mL.

Regarding `Cc1noc(C)c1NC(=O)Nc1ccc2c(c1)C(=O)N([C@@H](C)C[N+](C)(C)[O-])C[C@@H](C)[C@H](CN(C)S(=O)(=O)c1ccc(F)cc1)OCCCC[C@H](C)O2`, in the series with Plasmodium falciparum, the 50% growth inhibitory concentration (GI50) came to 160 nM. The solubility in series [3] is > 100 µM. Further, the logD in series [1] came out at 1.5. Further, the remaining at 1 h, 1 µM in [2] amounted to 35%.

Take `Cc1noc(C)c1NC(=O)Nc1ccc2c(c1)C(=O)N([C@@H](C)CNCC(C)(C)C)C[C@@H](C)[C@H](CN(C)S(=O)(=O)c1ccc(F)cc1)OCCCC[C@H](C)O2`: in the series with Plasmodium falciparum, the GI50 was 14 nM. This compound also gave a solubility in [3] of 7 µM (≈ 5.41 µg/mL). This compound also came in with a logD in series [1] of 3.8. In addition, the remaining at 1 h, 1 µM in series [2] turned out to be 5%.

As for `Cc1noc(C)c1NC(=O)Nc1ccc2c(c1)C(=O)N([C@@H](C)CNCC(F)(F)F)C[C@@H](C)[C@H](CN(C)S(=O)(=O)c1ccc(F)cc1)OCCCC[C@H](C)O2`, the concentration for 50% growth inhibition (GI50) with Plasmodium falciparum is 9 nM. This compound displayed an inhibition at 1.25 h, 10 µM at hERG (KCNH2) of 15%. In series [1], this compound yielded a logD of 3.9. Also, in series [2], the remaining at 1 h, 1 µM was < 5%.

As to `Cc1noc(C)c1NC(=O)Nc1ccc2c(c1)C(=O)N([C@@H](C)CN1CCOCC1)C[C@@H](C)[C@H](CN(C)S(=O)(=O)c1ccc(F)cc1)OCCCC[C@H](C)O2`, in the series with Plasmodium falciparum, the GI50 was found to be 105 nM. This compound displayed a solubility in series [3] of 29 µM (≈ 22.4 µg/mL). The same compound displayed an inhibition at 1.25 h, 10 µM at hERG (KCNH2) of 1%. This compound also yielded a logD in series [1] of 3.5. In addition, in series [2], the remaining at 1 h, 1 µM is < 5%.

As for `C[C@H]1[C@H](OC(=O)CCC(=O)O)O[C@@H]2O[C@@]3(C)CC[C@H]4[C@H](C)CC[C@@H]1[C@@]24OO3` [ARTESUNATE], the “inhibition (INH)” value with Plasmodium berghei [7] was 97%.
